Source: patent US10414769B2, “5,8-dimethyl-9-phenyl-5,8-dihydro-6H-pyrazolo[3,4-h]quinazolin-2-yl)-(1H-pyrazol-3-yl)-amines as IGF-1R/IR inhibitors” (Boehringer Ingelheim International GmbH, priority 2015, dated 2019)

Experiments:
Format in all cases: biochemical
MAPK14 (p38 alpha) = biological target: T1, MAPK14 (p38 alpha) (Homo sapiens, UniProt Q16539); assay: Z'-LYTE kinase selectivity assay MAPK14
T1 construct: purchased Life Technologies PV 3304
Description: (§1) In order to compare the kinase selectivity of compounds (I) according to the invention with known prior art compounds the commercially provided SelectScreen® Kinase Profiling Service (Z′-LYTE®) was used (Life Technologies GmbH, Darmstadt, Germany) to investigate the ability of the compounds to inhibit a number of different, representatively selected human kinases. Further details regarding this service are available on the Life Technologies website at
(§2) The Z′-LYTE® biochemical assay employs a fluorescence-based, coupled-enzyme format and is based on the differential sensitivity of phosphorylated and non-phosphorylated peptides to proteolytic cleavage. The peptide substrate is labeled with two fluorophores—one at each end—that make up a FRET pair.
(§3) In the primary reaction, the kinase transfers the gamma-phosphate of ATP to a single tyrosine, serine or threonine residue in a synthetic FRET-peptide. In the secondary reaction, a site-specific protease recognizes and cleaves non-phosphorylated FRET-peptides. Phosphorylation of FRET-peptides suppresses cleavage by the Development Reagent. Cleavage disrupts FRET between the donor (i.e., coumarin) and acceptor (i.e., fluorescein) fluorophores on the FRET-peptide, whereas uncleaved, phosphorylated FRET-peptides maintain FRET. A ratiometric method, which calculates the ratio (the Emission Ratio) of donor emission to acceptor emission after excitation of the donor fluorophore at 400 nm, is used to quantitate reaction progress, as shown in the equation below.
(§4) The Test Compounds are screened at 1 μM.
After the 1 hour Kinase Reaction incubation, 5 μL of a 1:1024 dilution of Development Reagent A is added.

EGFR (ErbB1) = biological target: T2, EGFR (ErbB1) (Homo sapiens, UniProt P00533); assay: Z'-LYTE kinase selectivity assay EGFR
T2 construct: purchased Life Technologies PV 3872
Description: as §1, §2, §3, §4
The 2×EGFR (ErbB1) (# PV 3872)/Tyr 04 (Z′-LYTE® Kinase Assay Kit—Tyrosine 4 Peptide, # PV 3193) mixture is prepared in 50 mM HEPES pH 7.5, 0.01% BRIJ-35, 10 mM MgCl2, 4 mM MnCl2, 1 mM EGTA, 2 mM DTT. The final 10 μL Kinase Reaction consists of 1.1-8 ng EGFR (ErbB1) and 2 μM Tyr 04 in 50 mM HEPES pH 7.5, 0.01% BRIJ-35, 10 mM MgCl2, 2 mM MnCl2, 1 mM EGTA, 1 mM DTT. After the 1 hour Kinase Reaction incubation, 5 μL of a 1:64 dilution of Development Reagent B is added.

CAMK2D (CaMKII delta) = biological target: T3, CAMK2D (CaMKII delta) (Homo sapiens, UniProt Q13557); assay: Z'-LYTE kinase selectivity assay CAMK2D
T3 construct: purchased Life Technologies PV 3373
Description: as §1, §2, §3, §4
The 2×CAMK2D (CaMKII delta) (# PV 3373)/Ser/Thr 04 (Z′-LYTE® Kinase Assay Kit—Ser/Thr 4 Peptide, # PV 3177) mixture is prepared in 50 mM HEPES pH 7.5, 0.01% BRIJ-35, 10 mM MgCl2, 1 mM EGTA, 4 mM CaCl2), 800 U/mL Calmodulin, 0.02% NaN3. The final 10 μL Kinase Reaction consists of 0.08-0.74 ng CAMK2D (CaMKII delta) and 2 μM Ser/Thr 04 in 50 mM HEPES pH 7.5, 0.01% BRIJ-35, 10 mM MgCl2, 1 mM EGTA, 2 mM CaCl2), 400 U/mL Calmodulin, 0.01% NaN3. After the 1 hour Kinase Reaction incubation, 5 μL of a 1:1024 dilution of Development Reagent A is added.

PRKACA (PKA) = biological target: T4, PRKACA (PKA) (Homo sapiens, UniProt P17612); assay: Z'-LYTE kinase selectivity assay PRKACA
T4 construct: purchased Life Technologies P 2912
Description: as §1, §2, §3, §4
The 2×PRKACA (PKA) (# P 2912)/Ser/Thr 01 (Z′-LYTE® Kinase Assay Kit—Ser/Thr 1 Peptide, # PV 3174) mixture is prepared in 50 mM HEPES pH 7.5, 0.01% BRIJ-35, 10 mM MgCl2, 1 mM EGTA. The final 10 μL Kinase Reaction consists of 0.03-0.15 ng PRKACA (PKA) and 2 μM Ser/Thr 01 in 50 mM HEPES pH 7.5, 0.01% BRIJ-35, 10 mM MgCl2, 1 mM EGTA. After the 1 hour Kinase Reaction incubation, 5 μL of a 1:4096 dilution of Development Reagent A is added.

TBK1 = biological target: T5, TBK1 (Homo sapiens, UniProt Q9UHD2); assay: Z'-LYTE kinase selectivity assay TBK1
T5 construct: purchased Life Technologies PV 3504
T5 sequence (Q9UHD2 1-729): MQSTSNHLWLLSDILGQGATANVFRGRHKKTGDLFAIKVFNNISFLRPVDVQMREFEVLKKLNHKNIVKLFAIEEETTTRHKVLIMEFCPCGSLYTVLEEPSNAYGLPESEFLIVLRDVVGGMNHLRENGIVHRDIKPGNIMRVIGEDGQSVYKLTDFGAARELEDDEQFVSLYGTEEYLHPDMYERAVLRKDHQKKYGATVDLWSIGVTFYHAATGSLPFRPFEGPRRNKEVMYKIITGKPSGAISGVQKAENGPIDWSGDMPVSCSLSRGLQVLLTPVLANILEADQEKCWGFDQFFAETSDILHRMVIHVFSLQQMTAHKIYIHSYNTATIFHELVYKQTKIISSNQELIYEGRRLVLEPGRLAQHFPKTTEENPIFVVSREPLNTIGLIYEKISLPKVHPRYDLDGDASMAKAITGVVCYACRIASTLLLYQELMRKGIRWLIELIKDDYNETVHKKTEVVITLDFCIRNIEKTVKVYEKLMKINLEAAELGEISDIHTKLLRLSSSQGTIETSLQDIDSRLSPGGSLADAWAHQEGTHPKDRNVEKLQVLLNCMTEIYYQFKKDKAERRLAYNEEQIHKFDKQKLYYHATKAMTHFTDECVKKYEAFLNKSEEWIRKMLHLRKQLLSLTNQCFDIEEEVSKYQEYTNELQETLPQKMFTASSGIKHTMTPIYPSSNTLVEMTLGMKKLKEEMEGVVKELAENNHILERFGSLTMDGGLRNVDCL
Description: as §1, §2, §3, §4
The 2×TBK1 (# PV 3504)/Ser/Thr 05 (Z′-LYTE® Kinase Assay Kit—Ser/Thr 5 Peptide, # PV 3178) mixture is prepared in 50 mM HEPES pH 7.5, 0.01% BRIJ-35, 10 mM MgCl2, 1 mM EGTA. The final 10 μL Kinase Reaction consists of 0.7-9.72 ng TBK1 and 2 μM Ser/Thr 05 in 50 mM HEPES pH 7.5, 0.01% BRIJ-35, 10 mM MgCl2, 1 mM EGTA. After the 1 hour Kinase Reaction incubation, 5 μL of a 1:64 dilution of Development Reagent B is added.

T1 sequence (Q16539 whole entry): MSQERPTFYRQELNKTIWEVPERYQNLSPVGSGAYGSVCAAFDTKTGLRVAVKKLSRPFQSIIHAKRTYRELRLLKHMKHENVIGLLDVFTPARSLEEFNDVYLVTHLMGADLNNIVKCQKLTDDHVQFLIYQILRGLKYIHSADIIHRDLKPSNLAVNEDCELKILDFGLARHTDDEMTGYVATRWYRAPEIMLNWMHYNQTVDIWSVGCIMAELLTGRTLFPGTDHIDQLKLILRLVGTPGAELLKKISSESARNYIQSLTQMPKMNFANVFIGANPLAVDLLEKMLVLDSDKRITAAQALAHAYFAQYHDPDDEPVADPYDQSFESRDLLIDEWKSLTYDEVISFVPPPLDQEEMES
T2 sequence (P00533 25-1210): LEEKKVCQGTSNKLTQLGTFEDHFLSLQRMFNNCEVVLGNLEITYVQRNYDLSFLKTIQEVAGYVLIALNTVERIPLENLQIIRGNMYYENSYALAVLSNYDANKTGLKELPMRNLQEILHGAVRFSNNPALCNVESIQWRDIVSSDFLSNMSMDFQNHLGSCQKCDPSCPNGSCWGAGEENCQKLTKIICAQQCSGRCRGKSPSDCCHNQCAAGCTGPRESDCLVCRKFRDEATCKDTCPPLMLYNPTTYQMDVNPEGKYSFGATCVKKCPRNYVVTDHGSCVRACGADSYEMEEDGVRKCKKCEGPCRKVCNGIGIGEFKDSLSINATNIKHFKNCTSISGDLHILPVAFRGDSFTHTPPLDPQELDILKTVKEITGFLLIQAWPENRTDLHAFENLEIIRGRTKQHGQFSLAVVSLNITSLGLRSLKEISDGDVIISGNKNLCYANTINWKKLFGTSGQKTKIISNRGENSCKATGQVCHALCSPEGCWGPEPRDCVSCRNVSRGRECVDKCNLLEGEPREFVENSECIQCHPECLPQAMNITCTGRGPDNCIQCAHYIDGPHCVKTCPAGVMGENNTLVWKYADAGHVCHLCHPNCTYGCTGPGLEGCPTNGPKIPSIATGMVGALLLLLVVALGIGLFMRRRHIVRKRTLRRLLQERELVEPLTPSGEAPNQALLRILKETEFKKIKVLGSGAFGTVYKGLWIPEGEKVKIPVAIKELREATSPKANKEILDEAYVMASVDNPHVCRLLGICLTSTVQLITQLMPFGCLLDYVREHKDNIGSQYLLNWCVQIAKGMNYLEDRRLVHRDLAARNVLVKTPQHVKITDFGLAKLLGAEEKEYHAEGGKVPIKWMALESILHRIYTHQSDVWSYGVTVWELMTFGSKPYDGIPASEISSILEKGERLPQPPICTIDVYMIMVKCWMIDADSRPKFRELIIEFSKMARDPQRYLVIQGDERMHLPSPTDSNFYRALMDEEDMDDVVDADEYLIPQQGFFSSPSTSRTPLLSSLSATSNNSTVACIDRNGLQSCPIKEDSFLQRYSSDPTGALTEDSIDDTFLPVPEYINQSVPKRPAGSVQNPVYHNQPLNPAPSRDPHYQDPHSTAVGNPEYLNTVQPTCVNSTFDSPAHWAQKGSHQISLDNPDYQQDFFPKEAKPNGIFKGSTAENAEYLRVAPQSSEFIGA

Row | Structure (SMILES) | inhibition at 1 µM (MAPK14 (p38 alpha)) [%] | inhibition at 1 µM (EGFR (ErbB1)) [%] | inhibition at 1 µM (CAMK2D (CaMKII delta)) [%] | inhibition at 1 µM (PRKACA (PKA)) [%] | inhibition at 1 µM (TBK1) [%]
1 | C[C@@H]1Cc2nn(C)c(-c3ccccc3)c2-c2nc(Nc3ccn(CCN4CCOCC4)n3)ncc21 [Compound I-2] | 7 | 68 | 47 | 22 | 48
2 | C[C@@H]1Cc2nn(C)c(-c3ccccc3)c2-c2nc(Nc3ccn(CCN4CCN(CC(C)(C)O)CC4)n3)ncc21 [Compound I-3] | 2 | 72 | 58 | 13 | 51
3 | C[C@@H]1Cc2nn(C)c(-c3ccccc3)c2-c2nc(Nc3ccn(CCN4CCN(CC(=O)OC5CCOCC5)CC4)n3)ncc21 [Compound I-8] | -5 | 56 | 40 | 16 | 46
4 | C[C@@H]1Cc2nn(C)c(-c3ccccc3)c2-c2nc(Nc3ccn(CCN4CCN(CC5CCCO5)CC4)n3)ncc21 (some centres unmarked) [Compound I-9] | 4 | 65 | 69 | 17 | 57

Other lines, results leading:

Row | inhibition at 1 µM (MAPK14 (p38 alpha)) [%] | inhibition at 1 µM (EGFR (ErbB1)) [%] | inhibition at 1 µM (CAMK2D (CaMKII delta)) [%] | inhibition at 1 µM (PRKACA (PKA)) [%] | inhibition at 1 µM (TBK1) [%] | Structure (SMILES)
5 | -5 | 65 | 53 | -5 | 38 | C[C@@H]1Cc2nn(C)c(-c3ccccc3)c2-c2nc(Nc3ccn(CCN4CCN(C)CC4)n3)ncc21 [Compound I-1]
6 | 2 | 77 | 64 | 16 | 49 | CC(O)CN1CCN(CCn2ccc(Nc3ncc4c(n3)-c3c(nn(C)c3-c3ccccc3)C[C@H]4C)n2)CC1 (some centres unmarked) [Compound I-7]
7 | 1 | 53 | 38 | -3 | 33 | COCCN1CCN(CCn2ccc(Nc3ncc4c(n3)-c3c(nn(C)c3-c3ccccc3)C[C@H]4C)n2)CC1 [Compound I-11]
